Assay results reported in patent US11046699B2, “Pyrazolo-pyrimidin-amino-cycloalkyl compounds and their therapeutic uses” (RAPT THERAPEUTICS, INC., priority 2018, dated 2021).
Where two headings read alike, the source gives them in different places.

Target: GCN2 (Homo sapiens, UniProt Q9P2K8)
Assay: GCN2 enzymatic endpoint assay: phosphorylation of GFP-eIF2α measured by TR-FRET (Lanthascreen)
Type: biochemical
Procedure, shortened: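 Reaction started with 2 μM ATP and 80 nM GFP-labelled eIF2α substrate at room temperature, stopped with EDTA after 90 minutes. Phospho-eIF2α detected by terbium-labelled antibody TR-FRET; activity taken as 520 nm (fluorescein) to 495 nm (terbium) emission ratio.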

[1] = tested as described in Example 77, compound and/or hydrochloride, dihydrochloride or trifluoroacetic acid salt, read-out: IC 50 Activity
[2] = GCN2 biochemical IC50, 4 nM GCN2, 2 μM ATP, 80 nM GFP-eIF2α, 90 min RT, read-out: GCN2 activity

Sequence of GCN2 (Q9P2K8 whole entry): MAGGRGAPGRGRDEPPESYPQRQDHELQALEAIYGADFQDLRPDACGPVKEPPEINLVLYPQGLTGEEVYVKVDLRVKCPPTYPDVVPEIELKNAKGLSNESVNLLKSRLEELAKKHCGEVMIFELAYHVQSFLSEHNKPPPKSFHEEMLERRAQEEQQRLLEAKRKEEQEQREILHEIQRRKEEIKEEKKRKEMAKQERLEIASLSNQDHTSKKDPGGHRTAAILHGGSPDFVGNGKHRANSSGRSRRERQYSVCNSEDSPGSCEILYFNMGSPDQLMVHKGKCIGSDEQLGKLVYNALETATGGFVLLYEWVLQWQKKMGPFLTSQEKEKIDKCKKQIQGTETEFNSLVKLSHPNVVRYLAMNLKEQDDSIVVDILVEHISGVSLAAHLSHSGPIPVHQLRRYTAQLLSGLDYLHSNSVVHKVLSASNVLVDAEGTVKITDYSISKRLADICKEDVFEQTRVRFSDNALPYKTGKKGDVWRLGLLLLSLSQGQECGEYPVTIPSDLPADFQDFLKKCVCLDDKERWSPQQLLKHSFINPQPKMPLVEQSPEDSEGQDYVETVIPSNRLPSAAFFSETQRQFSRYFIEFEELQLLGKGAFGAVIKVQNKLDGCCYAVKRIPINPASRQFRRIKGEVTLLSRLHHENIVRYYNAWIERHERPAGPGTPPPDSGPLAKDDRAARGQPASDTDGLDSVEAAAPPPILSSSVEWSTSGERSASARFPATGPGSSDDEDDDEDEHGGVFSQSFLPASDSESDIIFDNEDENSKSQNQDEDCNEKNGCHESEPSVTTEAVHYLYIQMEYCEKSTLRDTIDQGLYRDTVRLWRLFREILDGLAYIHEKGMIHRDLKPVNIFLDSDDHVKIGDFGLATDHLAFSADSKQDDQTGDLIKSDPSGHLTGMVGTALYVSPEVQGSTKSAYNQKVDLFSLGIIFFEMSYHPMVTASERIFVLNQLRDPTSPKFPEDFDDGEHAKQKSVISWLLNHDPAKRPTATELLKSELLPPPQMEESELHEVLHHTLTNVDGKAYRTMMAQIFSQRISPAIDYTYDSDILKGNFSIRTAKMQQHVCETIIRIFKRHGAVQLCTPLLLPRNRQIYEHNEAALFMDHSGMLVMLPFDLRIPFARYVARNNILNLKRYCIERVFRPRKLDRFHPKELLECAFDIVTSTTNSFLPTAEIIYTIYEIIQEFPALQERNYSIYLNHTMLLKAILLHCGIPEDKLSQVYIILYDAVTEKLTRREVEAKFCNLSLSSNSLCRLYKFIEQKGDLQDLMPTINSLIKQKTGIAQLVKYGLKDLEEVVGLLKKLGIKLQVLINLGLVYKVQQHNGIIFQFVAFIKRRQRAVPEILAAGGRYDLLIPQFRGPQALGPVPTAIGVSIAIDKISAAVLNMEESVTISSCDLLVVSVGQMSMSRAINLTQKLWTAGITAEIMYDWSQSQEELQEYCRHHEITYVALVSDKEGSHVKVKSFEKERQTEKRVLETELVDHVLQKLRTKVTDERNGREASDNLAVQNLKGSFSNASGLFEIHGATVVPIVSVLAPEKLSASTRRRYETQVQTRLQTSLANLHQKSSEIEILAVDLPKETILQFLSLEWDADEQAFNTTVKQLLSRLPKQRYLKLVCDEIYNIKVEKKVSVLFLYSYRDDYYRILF

Compound | IC50 [1] [nM] | IC50 [2] [nM]
CNC(=O)[C@]1(C)CC[C@@H](Nc2ncc3c(Br)nn(-c4ccc5c(c4)c(=O)n(C)c(=O)n5C)c3n2)C1 | < 25 | 
CNC(=O)[C@]1(C)CC[C@@H](Nc2ncc3c(Br)nn(-c4cc(C#N)cc(CS(C)(=O)=O)c4)c3n2)C1 | 25 to 200 | 
C[C@]1(C(=O)N[C@@H]2CCOC2)C[C@H](Nc2ncc3c(Br)nn(-c4ccc5ncccc5c4)c3n2)C1 | 25 to 200 | 
Cc1nnc(-c2ccc(-n3nc(Br)c4cnc(NC5CC(P(C)(C)=O)C5)nc43)cc2)s1 (centres unmarked) [3-bromo-N-(3-dimethylphosphorylcyclo-butyl)-1-[4-(5-methyl-1,3,4-thiadiazol-2-yl)phenyl]pyrazolo[3,4-d]pyrimidin-6-amine] | 25 to 200 | 
CNC(=O)[C@]1(C)CC[C@@H](Nc2ncc3c(Br)nn(-c4ccc(-c5nnc(C)s5)c(CCC(=O)O)c4)c3n2)C1 [3-[5-[3-bromo-6-[[(1R,3R)-3-methyl-3-(methylcarbamoyl)cyclopentyl]amino]pyrazolo[3,4-d]pyrimidin-1-yl]-2-(5-methyl-1,3,4-thiadiazol-2-yl)phenyl] propanoic acid] | 25 to 200 | 
CNC(=O)C1CCN(C(=O)[C@@H]2CC[C@@H](Nc3ncc4c(Br)nn(-c5cc(F)c6ncccc6c5)c4n3)C2)C1 (mixture of isomers) | 25 to 200 | 
CC1(CNC(=O)[C@@H]2CC[C@@H](Nc3ncc4c(Br)nn(-c5cc(F)c6ncccc6c5)c4n3)C2)COC1 [(1R,3R)-3-((3-bromo-1-(8-fluoroquinolin-6-yl)-1H-pyrazolo[3,4-d]pyrimidin-6-yl)amino)-N-((3-methyloxetan-3-yl)methyl)cyclopentane-1-carboxamide] | 25 to 200 | 
CNC(=O)C1(CC#N)CC[C@@H](Nc2ncc3c(Br)nn(-c4ccc(-c5nnc(C)s5)c(CCC#N)c4)c3n2)C1 (some centres unmarked) | 25 to 200 | 
Cn1ccnc1-c1ccc(-n2nc(Br)c3cnc(N[C@@H]4CC[C@@H](C(=O)NCCS(C)(=O)=O)C4)nc32)cc1 [(1R,3R)-3-((3-bromo-1-(4-(1-methyl-1H-imidazol-2-yl)phenyl)-1H-pyrazolo[3,4-d]pyrimidin-6-yl)amino)-N-(2-(methyl-sulfonyl)ethyl)cyclopentane-1-carboxamide] | 500 to 1000 | 
CP(C)(=O)[C@@H]1CC[C@@H](Nc2ncc3c(Br)nn(-c4cc(CCN)c5nccnc5c4)c3n2)C1 [1-[8-(2-aminoethyl)quinoxalin-6-yl]-3-bromo-N-[(1R,3R)-3-dimethylphosphorylcyclopentyl] pyrazolo[3,4-d]pyrimidin-6-amine] | 25 to 200 | 
COCCNC(=O)[C@@H]1CC[C@@H](Nc2ncc3c(Br)nn(-c4cc(C(F)(F)F)c5ncccc5c4)c3n2)C1 [(1R,3R)-3-((3-bromo-1-(8-(trifluoromethyl)quinolin-6-yl)-1H-pyrazolo[3,4-d]pyrimidin-6-yl)amino)-N-(2-methoxyethyl)cyclopentane-1-carboxamide] | 200 to 500 | 
CNC(=O)[C@]1(C)CC[C@@H](Nc2ncc3c(Br)nn(-c4ccc5nc(N6CCCC6)ncc5c4)c3n2)C1 | 25 to 200 | 
CNC(=O)C1(CC#N)CC[C@@H](Nc2ncc3c(Br)nn(-c4ccc(-c5nnc(C)s5)cc4)c3n2)C1 (some centres unmarked) | 25 to 200 | 
CCc1cc(-n2nc(Br)c3cnc(N[C@@H]4CC[C@@](C)(C(=O)NC)C4)nc32)ccc1-c1nnc(C)s1 | 25 to 200 | 
N#Cc1cc(-n2nc(Br)c3cnc(N[C@@H]4CC[C@@H](C(=O)NC5CCN(CC(F)(F)F)C5)C4)nc32)cc2cccnc12 (mixture of isomers) | 25 to 200 | 
O=C1CN(C(=O)[C@@H]2CC[C@@H](Nc3ncc4c(Br)nn(-c5cc(F)c6ncccc6c5)c4n3)C2)CN1CC1CC1 [1-[(1R,3R)-3-[[3-bromo-1-(8-fluoro-6-quinolyl)pyrazolo[3,4-d]pyrimidin-6-yl]amino]cyclopentanecarbonyl]-3-(cyclopropylmethyl)imidazolidin-4-one] | 25 to 200 | 
C[C@@]1(O)CC[C@@H](Nc2ncc3c(Br)nn(-c4cc(CCN)c5ncccc5c4)c3n2)C1 | < 25 | 
CNC(=O)[C@H]1C[C@H](Nc2ncc3c(Br)nn(-c4cc(F)c5ncccc5c4)c3n2)C1 | 200 to 500 | 

More lines, now with the values ahead:

IC50 [1] [nM] | IC50 [2] [nM] | Compound
25 to 200 |  | CNC(=O)C1(CCS(C)(=O)=O)CC[C@@H](Nc2ncc3c(Br)nn(-c4ccc(-c5nnc(C)s5)cc4)c3n2)C1 (stereo partly drawn) [(3R)-3-[[3-bromo-1-[4-(5-methyl-1,3,4-thiadiazol-2-yl)phenyl]pyrazolo[3,4-d]pyrimidin-6-yl]amino]-N-methyl-1-(2-methylsulfonylethyl)cyclopentane-carboxamide]
< 25 |  | CNC(=O)[C@]1(C)CC[C@@H](Nc2ncc3c(Br)nn(-c4cc(NC(=O)CCN)c5ncccc5c4)c3n2)C1 [(1R,3R)-3-[[1-[8-(3-aminopropanoylamino)-6-quinolyl]-3-bromo-pyrazolo[3,4-d]pyrimidin-6-yl]amino]-N,1-dimethyl-cyclopentanecarboxamide]
25 to 200 |  | CNC(=O)[C@]1(C)CC[C@@H](Nc2ncc3c(Br)nn(-c4cc(F)c5nc(C(C)(C)N)ccc5c4)c3n2)C1 [(1R,3R)-3-[[1-[2-(1-amino-1-methyl-ethyl)-8-fluoro-6-quinolyl]-3-bromo-pyrazolo[3,4-d]pyrimidin-6-yl]amino]-N,1-dimethyl-cyclopentanecarboxamide]
25 to 200 |  | O=C([C@@H]1CC[C@@H](Nc2ncc3c(Br)nn(-c4cc(F)c5ncccc5c4)c3n2)C1)N1CCN2CCOC[C@@H]2C1 [((1R,3R)-3-((3-bromo-1-(8-fluoroquinolin-6-yl)-1H-pyrazolo[3,4-d]pyrimidin-6-yl)amino)cyclopentyl)((S)-hexahydropyrazino[2,1-c] [1,4]oxazin-8(1H)-yl)methanone]
25 to 200 |  | CNC(=O)[C@]1(C)CC[C@@H](Nc2ncc3c(Br)nn(-c4ccc(-n5cncn5)cc4)c3n2)C1 [(1R,3R)-3-[[3-bromo-1-[4-(1,2,4-triazol-1-yl)phenyl]pyrazolo[3,4-d]pyrimidin-6-yl]amino]-N,1-dimethyl-cyclopentane-carboxamide]
25 to 200 |  | CNC(=O)[C@]1(C)CC[C@@H](Nc2ncc3c(Br)nn(-c4ccc(-c5nnco5)cc4)c3n2)C1 [(1R,3R)-3-[[3-bromo-1-[4-(1,3,4-oxadiazol-2-yl)phenyl]pyrazolo[3,4-d]pyrimidin-6-yl]amino]-N,1-dimethyl-cyclopentane-carboxamide]
< 25 |  | C[C@@]1(C(=O)NCC2(O)CC2)CC[C@@H](Nc2ncc3c(Br)nn(-c4cc(F)c5ncccc5c4)c3n2)C1 [(1R,3R)-3-[[3-bromo-1-(8-fluoro-6-quinolyl)pyrazolo[3,4-d]pyrimidin-6-yl]amino]-N-[(1-hydroxycyclopropyl)methyl]-1-methyl-cyclopentanecarboxamide]
25 to 200 |  | O=C(NCc1ncco1)[C@@H]1CC[C@@H](Nc2ncc3c(Br)nn(-c4ccc5ncccc5c4)c3n2)C1 [(1R,3R)-3-((3-bromo-1-(quinolin-6-yl)-1H-pyrazolo[3,4-d]pyrimidin-6-yl)amino)-N-(oxazol-2-ylmethyl)cyclopentane-1-carboxamide]
 | 25 to 200 | CNS(=O)(=O)[C@@H]1CC[C@@H](Nc2ncc3c(Br)nn(-c4ccc5ncccc5c4)c3n2)C1 (single isomer, unassigned) [Example 16]
25 to 200 |  | CNC(=O)[C@]1(C)CC[C@@H](Nc2ncc3c(Br)nn(-c4ccc5c(c4)CN(S(=O)(=O)CC(F)F)C5)c3n2)C1 [(1R,3R)-3-[[3-bromo-1-[2-(2,2-difluoroethylsulfonyl)isoindolin-5-yl]pyrazolo[3,4-d]pyrimidin-6-yl]amino]-N,1-dimethyl-cyclopentanecarboxamide]
< 25 |  | COCCN(C)C(=O)[C@]1(C)CC[C@@H](Nc2ncc3c(Br)nn(-c4cc(F)c5ncccc5c4)c3n2)C1 [(1R,3R)-3-[[3-bromo-1-(8-fluoro-6-quinolyl)pyrazolo[3,4-d]pyrimidin-6-yl]amino]-N-(2-methoxyethyl)-N,1-dimethyl-cyclopentane-carboxamide]
25 to 200 |  | CCN1C(=O)COc2cc(-n3nc(Br)c4cnc(N[C@@H]5CC[C@@](C)(C(=O)NC)C5)nc43)ccc21 [(1R,3R)-3-[[3-bromo-1-(4-ethyl-3-oxo-1,4-benzoxazin-7-yl)pyrazolo[3,4-d]pyrimidin-6-yl]amino]-N,1-dimethyl-cyclopentane-carboxamide]
< 25 |  | C[C@@]1(C(=O)NCCO)CC[C@@H](Nc2ncc3c(Br)nn(-c4cc(F)c5ncccc5c4)c3n2)C1 [(1R,3R)-3-[[3-bromo-1-(8-fluoro-6-quinolyl)pyrazolo[3,4-d]pyrimidin-6-yl]amino]-N-(2-hydroxyethyl)-1-methyl-cyclopentane-carboxamide]
 | 25 to 200 | NC(=O)[C@@H]1CC[C@@H](Nc2ncc3c(Br)nn(-c4cc(F)c5ncccc5c4)c3n2)C1 [Example 12, (1R,3R)-3-((3-bromo-1-(8-fluoroquinolin-6-yl)-1H-pyrazolo[3,4-d]pyrimidin-6-yl)amino)cyclopentane-1-carboxamide]
200 to 500 |  | O=C(NCCc1cnc[nH]1)[C@@H]1CC[C@@H](Nc2ncc3c(Br)nn(-c4ccc5ncccc5c4)c3n2)C1 [(1R,3R)-N-(2-(1H-imidazol-5-yl)ethyl)-3-((3-bromo-1-(quinolin-6-yl)-1H-pyrazolo [3,4-d]pyrimidin-6-yl)amino)cyclopentane-1-carboxamide]
25 to 200 |  | COCCNC(=O)[C@@H]1CC[C@@H](Nc2ncc3c(Br)nn(-c4ccc5ccncc5c4)c3n2)C1 [(1R,3R)-3-((3-bromo-1-(isoquinolin-7-yl)-1H-pyrazolo[3,4-d]pyrimidin-6-yl)amino)-N-(2-methoxyethyl)cyclopentane-1-carboxamide]
25 to 200 |  | CNC(=O)[C@]1(C)CC[C@@H](Nc2ncc3c(Br)nn(-c4ccc5c(c4)[C@H](NS(C)(=O)=O)CC5)c3n2)C1 [(1R,3R)-3-[[3-bromo-1-[(3R)-3-(methanesulfonamido)indan-5-yl]pyrazolo [3,4-d]pyrimidin-6-yl]amino]-N,1-dimethyl-cyclopentanecarboxamide]
